Measured values: patent publication US12478586B2, “Small molecular drug-loaded polymer vesicle, preparation method therefor and use thereof” (SOOCHOW UNIVERSITY, priority 2020, dated 2025)
Where a name gives a salt, the structure may show the parent alone.

Tests used:
[1] = test system: LP-1-Luc multiple myeloma mice; assay: Anti-tumor effect in orthotopic LP-1-Luc multiple myeloma mice; format: in vivo
Description: Mice were simultaneously weighed.
To investigate the anti-tumor effect of Dar-Ps-VCR in […] LP-1-Luc multiple myeloma mice, treatment experiments were initiated when the bioluminescence intensity reached 1.2×10^6 p/sec/cm^2/sr on day 10 post-inoculation. There were two dosing regimens that maintained the same total VCR administration: one with a VCR dose of 0.25 mg/kg, one injection given on 4 days for a total of 4 injections, denoted as Dar-Ps-VCR (0.25 mg VCR equiv./kg, Q4d); and the other with a VCR dose of 0.50 mg/kg, one injection given on 8 days for a total of 2 injections, denoted as Dar-Ps-VCR (0.50 mg VCR equiv./kg, Q8d). Based on the first dosing regimen, equal VCR doses of Ps-VCR and free VCR, equal equivalents of Dar-Ps, and PBS were used as controls. Each treatment group consisted of 10 […] mice, of which 4 were used for bioluminescence imaging and 6 were used to monitor body weight and observe survival. […] At the end of drug administration, the tumors of mice in the non-targeted Ps-VCR and free VCR groups began to recur, and Luc bioluminescence signals increased rapidly, i.e., 157- and 53-fold by day 39, respectively.

[2] = test system: LP-1 cells; assay: AnnexinV-FITC/PI apoptosis by flow cytometry; format: cell-based; settings: VCR 0.5 ng/mL, 48 h
Description: LP-1 cells were first spread in 6-well plates at a density of 2×10^5 cells/well and incubated in the incubator for 24 h. After 24 h, 200 μL of Dar-Ps-VCR, Ps-VCR, and free VCR were added (the in-well concentration of VCR was 0.5 ng/mL), and the cells with only PBS were used as a control. After incubation in the incubator for 48 h, LP-1 cells were collected by centrifugation (800 rpm, 5 min) and washed twice with ice PBS, and finally 200 μL of Binding buffer was added to each sample to resuspend the cells (the cell density was approximately 10^6 cells/mL). After blowing uniformly, 100 μL was taken into the flow tube and 5 μL of AnnexinV-FITC and 10 μL of PI solution were added sequentially, and the cells were stained at room temperature and protected from light for 15 min, then 400 μL of PBS was added and mixed uniformly, and measured by flow cytometry within 1 h. The cells were then stained with PBS for 15 min at room temperature and protected from light for 15 min. Among them, the samples in the PBS group that were treated in a 50° C. water bath for 5 min and fixed with 4% paraformaldehyde for 5 min were used as the early apoptosis group and the late apoptosis group, respectively, and stained for 15 min by adding 5 μL of AnnexinV-FITC solution and 10 μL of PI solution, respectively.

[3] = test system: LP-1 multiple myeloma cells; assay: CCK-8 cytotoxicity; format: cell-based; settings: LP-1 cells
Description: The in vitro anti-tumor activity of Dar-Ps-VCR against LP-1 multiple myeloma cells was determined using a CCK-8 kit, with MV4-11 cells as a control. LP-1 cells were first spread in 96-well plates (15,000/well) and placed in an incubator at 37° C. with 5% CO2 for 24 h. After that, 20 μL of Dar-Ps-VCR, Ps-VCR and free VCR containing different Dar surface densities were added to each well, and the final concentrations of VCR in the wells were 0.001, 0.01, 0.05, 0.1, 0.5, 1 and 10 ng/mL. After incubation at 37° C. for 48 h, 10 μL of CCK-8 solution was added to each well to continue the incubation for 4 h. Finally, its absorbance value at 492 nm was tested by an enzyme marker. Cell viability was calculated by the ratio of the absorbance value of the experimental group to the absorbance value of the cells incubated with the addition of PBS, and the experiment was performed in parallel for four groups (mean±SD, […]).

In the case of `CC[C@]1(O)C[C@H]2CN(CCc3c([nH]c4ccccc34)[C@@](C(=O)OC)(c3cc4c(cc3OC)N(C=O)[C@H]3[C@@](O)(C(=O)OC)[C@H](OC(C)=O)[C@]5(CC)C=CCN6CC[C@]43[C@@H]65)C2)C1` [free VCR, vincristine sulfate], the median survival ([1]; 0.25 mg VCR equiv./kg, Q4d (Dar-Ps: equal equivalents)) is reported as 52 days, the “increase of Luc bioluminescence signal” value ([1]; by day 39, 0.25 mg VCR equiv./kg, Q4d) is reported as 53 fold and the “Luc signal during the administration treatment period” value ([1]; days 10-22) is reported as “no significant increase or even a slight decrease in Luc signal”. The apoptosis [2] was 31.4% and the IC50 ([3]; Homo sapiens, 48 h, VCR concentration, read-out: LC50 (IC50)) was 1.38 ng/mL.
In the case of “free Dar: CD38-targeting monoclonal antibody daratumumab (Dar)”, the cell survival ([3]; Dar concentration 9 μg/mL) is reported as roughly 100%.
